# “Also recorded” adds a separate entry of the source. Marks after values point to notes of the source that are not given here. Ends that are not written are not given here.
# Key:
# L1210 leukemia = assay: Survival of mice with transplanted L1210 leukemia; type: in vivo, DBA/2 mice; details: controls: IL-2, IFN-γ 3 × 10^5 IU/kg, cyclophosphamide 20 mg/kg; saline 16.6 ± 5.6
# Experimental: (§1) Intraperitoneal injection, once per day. […] Treatment of all groups with testing substance lasted for 30 days or until the animal died unless otherwise specified.
# Stock L1210 cells were incubated in DMEM/F12 medium supplemented with 10% fetal bovine serum, 37° C./5% CO2 for 72 hrs, then washed 3-4 times with Hank's solution, and adjusted to […]. 0.1 ml of the cell suspension was implanted into the abdominal cavity of several healthy DBA mice for 6-8 days. The mice were then killed by cervical vertebra dislocation and their ascitic fluid collected aseptically. The cell concentration of the collected ascitic fluid was adjusted to 1×10^5 per ml with Hank's solution. 0.1 ml of the cell suspension was implanted into each of the testing animal and the survival data of the animals recorded. Treatment started in the testing animals as described in section Method 1. Mean survival day was obtained by the Kaplan-meier method in the Survival option of the SPSS software. If the animal survived longer than the experiment, the survival days was entered as the duration of the experiment. The survival index was calculated according to the following formula: Survival index=(mean survival days of treatment group−mean survival days of control group)÷mean survival days of control group 6. The Effect of Peptides on the Humoral Immunity of C57BL/6 Mice Bearing Transplanted B16 Melanoma and that on the Metastatic Potential of the Inoculated Melanoma Cells
# S180 sarcoma = assay: Growth of transplanted S180 sarcoma; type: in vivo, BALB/c mice; details: controls: IL-2, IFN-γ 3 × 10^5 IU/kg, cyclophosphamide 20 mg/kg; saline 1.29 ± 0.50
# Experimental: as §1
# Stock S180 sarcoma cells were incubated in DMEM/F12 medium supplemented with 10% fetal bovine serum, 37° C., 5% CO2 for 72 hrs, then washed 3-4 times with Hank's solution at room temperature. Adjust the cell concentration to 1-2×10^9 per litre with Hank's solution. […] The mice were killed by cervical vertebra dislocation. Vigorously growing and non-disrupted tumor masses were harvested and washed clean with sterile saline. The tissue was dispersed in saline to a homogenous cell suspension, in a ratio of 1 g tissue to 4 ml saline. The sarcoma bearing mice model was prepared with an injection of 0.2 ml cell suspension through the armpit. Administration of test substance treatment started as described in section Method 1.
# 2.2 The Tumor Growth Inhibition Index was Calculated According to the Following Formula: Tumor growth inhibition index=(mean tumor weight of control group−mean tumor weight of treatment group)÷mean tumor weight of control group 3.
# [1] = system: Masugi nephritis rat model; assay: Masugi nephritis rat model; details: for urine protein level: 24 h urine; for spleen index / Serum creatinine level: after three weeks of treatment; for spleen index: placebo 4.8 ± 1.1, normal 2.4 ± 0.1; for Serum creatinine level: placebo 265 ± 212, normal 80 ± 1; for renal pathological microscopic examination: peptides 50 μg/kg/day i.p. 3 weeks, 6 heaviest kidneys per group
# spleen = assay: Immunity organ weight test, spleen index; type: in vivo, BALB/c mice
# Experimental: (§2) One day after the last test substance administration (day 16), the liver, spleen, and thymus gland were separated and blotted dry with filter paper and weighed. The phagocytosis index α was calculated as below: α=(^3√{square root over ( )}K)(W÷WLS)
# Spleen index (%)=(spleen weight/body weight)×100%
# mononuclear phagocyte = assay: Carbon particle clearance test, phagocytosis function; type: in vivo, BALB/c mice; set-up: key to X ± SD (phagocytotic index): α = cube root of K × (body weight ÷ liver+spleen weight); details: for X ± SD (phagocytotic index): healthy mice, saline 5.1 ± 0.6; for effect on the phagocytotic activity of mononuclear phagocyte (summary): statistically significant difference from saline in any of the dosage groups 0.5-500 μg/kg/day
# Experimental: On the next day after the last test substance administration (day 16), the mice were injected with […] body weight India ink (5 times dilution with normal saline) from the tail vein.
# One minute and five minutes after Indian ink injection, 20 μl blood was obtained from the eye canthus with a heparinized tubing. The blood was mixed with 2 ml 0.1% w/v Na2CO3 and then OD680 nm obtained. The outline clear index K was calculated by the following formula: K=(lgA1−lgA2)÷(t2−t1)
# as §2
# NK cell = NK cell cytotoxicity activity test (spleen cells of treated mice against YAC-1 target cells, MTT); type: in vivo, BALB/c mice
# Experimental: The above substances were all dissolved in 0.5 ml saline and injected intraperitoneal (i.p.) for 15 continuous days, once per day.
# Ten mice per group. The day after the last test substance administration, the mice were sacrificed by cervical dislocation. The spleen was isolated aseptically and manually dispersed in cold D-Hank's solution using an injection needle. The dispersed cell suspension was further sieved through a 100 gauge 150 μm diameter stainless steel sieve. After centrifugation at 200 g for 10 minutes, the supernatant was discarded. The cell pellet was re-suspended in 10 volume of Tris-NH4Cl buffer and then kept standing still for 10 minutes at room temperature. The suspended cells were collected by centrifugation at 150 g for 10 minutes. The cells were washed 2-4 times with cold D-Hank's solution by re-suspending and collecting by centrifugation with condition as described above. The washed cells were then diluted to the desired cell densities by RPMI-1640 culture medium, containing 10% fetal bovine serum.
# Mice spleen cells were prepared to 4×10^6/ml as described in section 1.1 above. Target cells YAC-1 were brought to log phase and adjusted to 1×10^5/ml. Using a 96 wells cell culture plate, […] were added to the control well containing only the spleen cells; […] and 100 μl culture medium were added to the control well containing only target cells; 100 μl mouse spleen cells and 100 μl target cells were added to the NK activity assay well. Three parallel sets of the above were prepared per mouse.
# Samples were centrifuged at 150 g for 10 minutes to collect the cells. The supernatant was discarded and 50 μl/well MTT of 1 mg/ml was added. The reaction-mixture was then shaken for 2 minutes, and incubated at 37° C., 5% CO2 for 4 hours. The supernatant was discarded after centrifugation at 150 g for 10 minutes. […] 40 mM HCl-2-propanol was added and shaken for 3 minutes. An ELISA reader was used to obtain OD570 nm of each well referenced at 630 nm.
# thymus gland = assay: Immunity organ weight test, thymus gland index; type: in vivo, BALB/c mice; details: for weight of thymus gland (thymus gland index), X ± SD (%): healthy mice, saline 0.12 ± 0.02; for effect on the weight of the thymus gland (summary): statistically significant difference from saline in any of the dosage groups 0.5-500 μg/kg/day
# Experimental: as §2
# Thymus gland index (%)=(thymus weight/body weight)×100%
# anti-SRBC antibody = assay: Sheep Red Blood Cell (SRBC) hemolysis test, antibody formation; type: in vivo, BALB/c mice; details: for anti-SRBC antibody formation, X ± SD (Unit): healthy mice, SRBC day 12 (IFN-γ, IL-2 3×10^5 IU/kg/day), saline 32 ± 7
# Experimental: Sheep red blood cells (SRBC) were prepared by collecting blood from cervical vein and put into a sterile flask with glass beads. The flask was shaken for 3 minutes and the blood then mixed with Alsever solution (glucose 2.05 g, NaCl 0.4 g, […] 0.8 g, adjust to 100 ml with distilled water) and stored at 4° C. Immediately before use, samples were centrifuged at 130 g, 5 minutes to collect the SRBC. The cells were washed two times by re-suspension and centrifugation in normal saline. Then the cell pellet was collected by centrifugation at 180 g for 10 minutes and re-suspended in saline to make the final working SRBC suspension, 2% (v/v).
# Complement was prepared by adding 10 volumes of fresh Cavy serum into one volume centrifuge packed SRBC, and then gently shaking for 30 minutes at 4° C. The SRBC was removed by centrifugation at 200 g for 10 minutes. 10 volumes of normal saline were added to obtain the working complement solution.
# The test substances were administered as described in section 1.1, plus intraperitoneal injection 0.2 ml SRBC per mouse on day 12. On the day after the last test substance administration (day 16), blood was collected from the eye canthus and left at room temperature for one hour for serum exudation. After centrifugation at 200 g for 10 minutes, the serum was diluted by 500 times with normal saline.
# To 1 ml diluted mouse serum of each mouse, 0.5 ml SRBC suspension was added. Ice cold. Then 1 ml working complement solution was added and incubated at 37° C. water bath for 10 minutes. Reactions were terminated by ice cold. Samples were then centrifuged at 200 g for 10 minutes to obtain the supernatant.
# To 1 ml of this supernatant, 3 ml Drabkin solution was added and left at room temperature for 10 minutes. OD540 nm was obtained.
# Reference OD540 nm was obtained by mixing 0.25 ml SRBC suspension with Drabkin solution to 4 ml and placed at room temperature for 10 minutes before OD540 nm was taken.
# Sample serum index=(OD540 nm of test sample÷reference OD540 nm)×500
# [2] = Week 1, peptides 50 μg/kg/day, hydrocortisone 3.3 mg/kg/day i.p., placebo 22.9 ± 22, normal 1.7 ± 1.3
# [3] = Week 2, peptides 50 μg/kg/day i.p., hydrocortisone dose halved after first week, placebo 17.2 ± 14.5, normal 2.3 ± 1.1
# [4] = Week 3, peptides 50 μg/kg/day i.p., hydrocortisone dose halved after first week, placebo 20.2 ± 29.0, normal 0.4 ± 0.2
# [5] = statistically significant difference from saline in any of the dosage groups 0.5-500 μg/kg/day
# [6] = peptide 50 μg/kg/day i.p. 15 days (IFN-γ, IL-2 3×10^5 IU/kg/day)
# [7] = peptide 0.5 μg/kg/day i.p. 15 days (IFN-γ, IL-2 3×10^5 IU/kg/day)
# [8] = peptide 5 μg/kg/day i.p. 15 days (IFN-γ, IL-2 3×10^5 IU/kg/day)
# [9] = peptide 0.5 μg/kg/day i.p. 15 days
Compound,"urine protein level [1, 2] [mg]","urine protein level [1, 3] [mg]","urine protein level [1, 4] [mg]",spleen index ([1]; peptides 50 μg/kg/day i.p.),Serum creatinine level ([1]; peptides 50 μg/kg/day i.p.) [µmol/L],effect on the phagocytotic activity of mononuclear phagocyte (summary) (mononuclear phagocyte),renal pathological microscopic examination [1],"weight of thymus gland (thymus gland index), X ± SD (%) (thymus gland; [7])","weight of thymus gland (thymus gland index), X ± SD (%) (thymus gland; [8])","weight of thymus gland (thymus gland index), X ± SD (%) (thymus gland; [6])",effect on the weight of the thymus gland (summary) (thymus gland),"anti-SRBC antibody formation, X ± SD (Unit) (anti-SRBC antibody; [9])",other results
"O=P1(N(CCCl)CCCl)NCCCO1 (stereo not shown) [Cyclophosphamide, reference compound]",–,–,–,–,–,–,–,–,–,–,–,–,Survival days (L1210 leukemia): 24.0 ± 5.3 days; Tumor weight (S180 sarcoma): 0.68 ± 0.32 g
"C[C@]12CCC(=O)C=C1CC[C@@H]1[C@@H]2[C@@H](O)C[C@@]2(C)[C@H]1CC[C@]2(O)C(=O)CO [hydrocortisone, Hydrocortisone, reference compound]",3.1 ± 2.0,7.5 ± 7.7,7.6 ± 7.1,4.5 ± 1.4 ×10^−3,239 ± 107,–,–,–,–,–,–,–,"growth rate of the rats ([1]; peptides 50 μg/kg/day, hydrocortisone 3.3 mg/kg/day i.p.): slower growth rate than normal"
Phe Gln Gln Met (FQQM; printed: Phe Gln Gln Met) [CMS030],5.4 ± 3.4,9.5 ± 16.2,2.4 ± 1.5,3.0 ± 0.5 ×10^−3,93 ± 1,enhance,all pathological parameters of all rats were normal,0.24 ± 0.05*^@^ %,0.23 ± 0.07*^ %,0.25 ± 0.04*^@^ %,increase,19 ± 7,"weight of spleen (spleen index), X ± SD (%) (spleen; Table 30, healthy mice, peptide 5 μg/kg/day i.p. 15 days, saline 0.53 ± 0.05): 0.64 ± 0.09 %; effect on the weight of the spleen (summary) (spleen; [5]): increase; X ± SD (phagocytotic index) (mononuclear phagocyte; [6]): 6.3 ± 0.5; NK cell cytotoxic activity, X ± SD (%) (NK cell; healthy mice, peptide 500 μg/kg/day i.p. 15 days (IFN-γ, IL-2 3×10^5 IU/kg/day), saline 63 ± 9): 91 ± 5*^@^ %; effect on the cytotoxic activity of NK cells (summary) (NK cell; [5]): increase; weight of thymus gland (thymus gland index), X ± SD (%) (thymus gland; peptide 500 μg/kg/day i.p. 15 days (IFN-γ, IL-2 3×10^5 IU/kg/day)): 0.30 ± 0.03*^@^ %; anti-SRBC antibody formation, X ± SD (Unit) (anti-SRBC antibody; peptide 5 μg/kg/day i.p. 15 days): 158 ± 37*^@^ Unit; anti-SRBC antibody formation, X ± SD (Unit) (anti-SRBC antibody; peptide 50 μg/kg/day i.p. 15 days): 141 ± 33*^@^ Unit; effect on the synthesis of anti-SRBC antibody upon the antigenic challenge (summary) (anti-SRBC antibody; [5]): enhance; also recorded: inhibit"
VGMGQKDSY,7.0 ± 3.7,5.5 ± 7.9,3.3 ± 3.4,3.3 ± 0.8 ×10^−3,67 ± 1,enhance,all pathological parameters of all rats were normal,0.20 ± 0.03 %,0.24 ± 0.04*^@^ %,0.23 ± 0.02*^@^ %,increase,3 ± 1,"X ± SD (phagocytotic index) (mononuclear phagocyte; [8]): 6.7 ± 1.2; anti-SRBC antibody formation, X ± SD (Unit) (anti-SRBC antibody; peptide 500 μg/kg/day i.p. 15 days): 66 ± 16 Unit"
